From US12304920B2, “Platinum complex, its preparation and therapeutic use” (CITY UNIVERSITY OF HONG KONG, priority 2020, dated 2025) come the findings set out here.

For experiment [1], the system named is cisplatin-resistant A2780cisR cells. Description: MTT cytotoxicity test, A2780cisR. The format is cell-based, Human. The following applies: 72 h, medium with 1% DMF (no DMF for 3a and 3b). On the procedure: (§1) Human ovarian A2780 and cisplatin-resistant A2780cisR cells were maintained in Roswell Park […] (RPMI) 1640 medium supported with 10% FBS, 2 mM L-glutamine, and 100 unit/mL penicillin/streptomycin. Human lung carcinoma A549 cells, cisplatin-resistant A549cisR cells, and human breast MCF-7 cells were cultured in Dulbecco's Modified Eagle Medium (DMEM) with 10% FBS and 100 units penicillin/streptomycin.
(§2) The viability of cancer cells exposed to the compounds was evaluated by means of MTT assay. Cells were seeded in 96-well plates at a density of 3,000 cells per well and incubated until the cell confluency reached 50%. Then, the medium was removed and replaced with fresh medium containing different concentrations of complexes with 1% DMF. For complex 3a and 3b with A2780, A2780CisR, A549 and A549CisR cells, the medium used for replacement contains no DMF. After 72 h, the medium was changed to serum-free medium containing 1 mg/mL MTT. After 2 h additional incubation, the medium was removed, and DMSO (200 μL) was delivered to each well to dissolve the formed purple formazan. The absorbance at 570 nm and 730 nm of each well was measured using a microplate reader (BioTek PowerWave XS).

The test system of experiment [2] is Human ovarian A2780 cells. Briefly: MTT cytotoxicity test, A2780. The following applies: 72 h, medium with 1% DMF (no DMF for 3a and 3b). Type of experiment: cell-based. On the procedure: as §1, §2
Experiment [3] relates to cisplatin-resistant A549cisR cells. Briefly: MTT cytotoxicity test, A549cisR. Particulars: 72 h, medium with 1% DMF (no DMF for 3a and 3b). The format is cell-based, Human. On the procedure:
as §1, §2

Experiment [4] relates to Human lung carcinoma A549 cells. Description: MTT cytotoxicity test, A549. Type of experiment: cell-based. Particulars: 72 h, medium with 1% DMF (no DMF for 3a and 3b). As for the experimental part: as §1, §2
Another experiment concerns human breast MCF-7 cells. Briefly: MTT cytotoxicity test, MCF-7. The format is cell-based. Particulars: 72 h, medium with 1% DMF. On the procedure:
as §1, §2

Regarding `N.N.[Cl][Pt][Cl]` [cisplatin, reference compound], the IC50 came out at 23 ± 6 µM in experiment [1]; 2.1 ± 0.6 µM in experiment [2]; 12 ± 1 µM in experiment [3]; 2 ± 0.1 µM in experiment [4]; 18 ± 3 µM in the experiment with human breast MCF-7 cells.
For [Pt(C26H24P2)2]Cl2 [Complex 3a], the concentration for half-maximal inhibition (IC50) in experiment [1] came to 5 ± 1 µM; in experiment [2], 12 ± 3 µM; in experiment [3], 1.3 ± 0.1 µM; in experiment [4], 3.6 ± 0.2 µM; in the experiment with human breast MCF-7 cells it was 7 ± 1 µM.
On the same counts, the results for [Pt(C54H52P2)]Cl2 [Complex 3b] are 2.6 ± 0.6 µM, 0.23 ± 0.09 µM, 0.07 ± 0.01 µM, 0.48 ± 0.02 µM and 0.2 ± 0.01 µM.
As to t-[Pt(acetato)2(C9H17P)2] [Complex 2a], the IC50 in experiment [1] came out at 7 ± 2 µM; in experiment [2], 8 ± 1 µM; in experiment [4], 28 ± 3 µM; in the experiment with human breast MCF-7 cells, 7 ± 1 µM.
On the same counts, the results for “t-[Pt(acetato)2(C17H14NP)2] [Complex 2e]” are above 9.4 µM, above 9.4 µM, above 11.1 µM and above 9.4 µM.
For the molecule “t-[Pt(acetato)2(C18H12Cl3P)2] [Complex 2c]”, the 50% inhibitory concentration (IC50) in experiment [1] was 4 ± 1 µM; in experiment [2], 4 ± 1 µM; in experiment [4], 24 ± 7 µM; with human breast MCF-7 cells, 18 ± 2 µM.
t-[Pt(acetato)2(C18H21P)2] [Complex 2d]: the half-maximal inhibitory concentration (IC50) was above 2.4 µM in experiment [1], above 2.4 µM in experiment [2], above 2.7 µM in experiment [4] and above 2.4 µM in the experiment with human breast MCF-7 cells.
As to t-[Pt(acetato)2(C21H21P)2] [Complex 2b], the IC50 in experiment [1] worked out at 4 ± 1 µM; in experiment [2], 4 ± 1 µM; in experiment [4], 6.1 ± 0.3 µM; in the experiment on human breast MCF-7 cells, 4 ± 0.3 µM.
t-[Pt(acetato)2(PPh3)2] [Complex 1a]: the IC50 amounted to 3.3 ± 0.8 µM in experiment [1]; 4.3 ± 0.6 µM in experiment [2]; 5 ± 1 µM in experiment [3]; 3.3 ± 0.6 µM in experiment [4]; 10 ± 1 µM with human breast MCF-7 cells.
As to “t-[Pt(acetato)(benzoato)(PPh3)2] [Complex 1d]”, the 50% inhibitory concentration (IC50) worked out at 3.1 ± 0.2 µM in experiment [1], 4.9 ± 0.6 µM in experiment [2], 5 ± 1 µM in experiment [3] and 5 ± 3 µM in experiment [4].
On the same counts, the results for t-[Pt(phthalato)2(PPh3)2] [Complex 1c] are 10 ± 2 µM, 18 ± 3 µM, 7 ± 2 µM and 7 ± 1 µM.
As for t-[Pt(succinato)2(PPh3)2] [Complex 1b], the IC50 in experiment [1] was found to be 13 ± 1 µM; in experiment [2], 15 ± 1 µM; in experiment [3], 8 ± 5 µM; in experiment [4], 5.3 ± 0.6 µM.
For “t-[Pt(succinato)(benzoato)(PPh3)2] [Complex 1e]”, the IC50 in experiment [1] worked out at 7.2 ± 0.2 µM; in experiment [2] it was 8 ± 4 µM; in experiment [3] it was 5 ± 2 µM; in experiment [4], 5 ± 0.8 µM.
